Test results: patent publication US11648287B2, “Composition for the treatment of intracellular bacterial infection” (priority 2017, dated 2023)

Assays:
Raw 264.7 cells [1] = experiment: Propidium iodide influx, loss of viability of Raw 264.7 cells; assay type: cell-based, mouse; conditions: TPPS2a 0.25 μg/ml + S. epidermidis (40:1); illuminated for 5 minutes
Method: Raw 264.7 cells were seeded in a 96-well plate (polystyrene Nunclon™ clear TC plate, flat bottom, Greiner, The Netherlands) at a concentration of 1×10^5 cells/well and incubated overnight in RPMI at 37° C. in a humidified atmosphere containing 5% CO2 (unless specified otherwise). The cells were subsequently incubated overnight in 200 μl of RPMI containing gentamicin (15.6 to 1000 μg/ml), or incubated for 2 hours in RPMI containing photosensitizer TPPS2a (0.1 to 0.4 μg/ml) (PCI Biotech AS, Norway) which was replaced with refresh RPMI in order to remove unbound TPPS2a before incubation of another 2 hours. Raw 264.7 cells incubated in RPMI all the time were used as controls. […] After illumination, cells were incubated in refresh RPMI for 24 hours. The effect of gentamicin and of TPPS2a on the metabolic activity of Raw 264.7 cells was tested using MTT at 24 hours after incubation or by WST-1 assay directly and at 24 hours after illumination, respectively, according to the manufacturer's instruction (Cell MTT or WST-1 assay kit, Sigma-Aldrich, The Netherlands). […] The influx of propidium iodide was measured to quantify the loss of cell viability directly or at 24 hours after illumination.

[2] = system: intracellular S. epidermidis in Raw 264.7 cells; experiment: Intracellular antimicrobial activity assay; assay type: cell-based
Method: After culture S. epidermidis bacteria were pelleted, re-suspended in 1.5 ml of PBS mixed with 0.5 ml of human serum (H1 serum, Cat […], Bio Whittaker, The Netherlands) and incubated for 20 minutes for opsonization. The inoculum was adjusted to 1.8×10^8 CFU/ml with RPMI. Medium of cells was replaced by 40 μl of the bacterial inoculum (bacteria to cell ratio of 40:1) and phagocytosis was allowed to proceed for 45 minutes. […] Raw 264.7 cells were detached by incubation in 100 μl of RPMI containing 0.5 mM EDTA. Detached cells were transferred to a vial and lysed with 40 μl of 1% saponine by incubation in a waterbath sonicator for 5 minutes (Transsonic 460, Elma Schmldbaur GmbH, Germany). The sonicate was centrifuged, and the pelleted bacteria were washed repeatedly and re-suspended in PBS before quantitative culture of serial 10-fold dilutions. Intracellular surviving S. epidermidis in Raw 264.7 cells were expressed as numbers of CFU per well. […] After illumination, cells were incubated overnight, lysed before quantitative culture of surviving bacteria.

zebrafish embryos [3] = experiment: Toxicity of vancomycin alone or combined with TPCS2a and illumination for non-infected zebrafish embryos; assay type: in vivo; conditions: vancomycin alone, 0.4 to 6.4 ng per non-infected embryo
Method: The toxicity of vancomycin (Vanco) alone or combined with TPCS2a and illumination (T) for non-infected zebrafish embryos was examined. Doses of vancomycin (0.4, 1.6 or 6.4 ng per 1 nl of PBS), or combined with 2.5*10^−3 ng TPCS2a per 1 nl of PBS, were injected per embryo. […] The initial group sizes were 27 to 29 embryos.

Staphylococcus aureus = conditions: vancomycin alone 0.4 ng; 4300 CFU/embryo
Method: To investigate whether PCI enhanced the antimicrobial efficacy of vancomycin against Staphylococcus aureus infection, S. aureus-infected zebrafish embryos were treated with vancomycin alone (0.4 ng) or combined with TPCS2a (2.5*10^−3 ng). PBS mock treatment was used as control. After injections, zebrafish embryos were maintained group-wise in petri-dishes containing E3 medium. The petri-dishes were placed on the Lumisource illumination device and embryos were illuminated for 10 minutes. Initial group sizes were 29 or 30 embryos. The difference between survival of the vancomycin alone group and the vancomycin-TPCS2a/illumination group was analyzed using Log-rank test, *p≤0.033.

[4] = system: S. epidermidis strain O-47; experiment: MIC and MBC of gentamicin for S. epidermidis in RPMI; assay type: cell-based; conditions: S. epidermidis O-47; RPMI medium supplemented with 5% fetal calf serum
Source text: An “antibacterial agent” is an entity (e.g. a molecule) which has the ability to kill, damage or prevent the replication of selected bacteria under in vitro conditions, e.g. when in direct contact under culture conditions. The bacteria are preferably as described herein. (As referred to herein bacteria are referred to in both the singular and plural. In particular they are referred to in the singular when defining the type of bacteria to be targeted (i.e. the type, e.g. species, applicable to each bacterium) and in the plural when referring to the treatment to which they may be subjected (i.e. treatment of multiple microorganisms).) In particular, the antibacterial activity is assessed by determining the MIC or MBC value against one or more bacteria, e.g. against a Staphylococcus bacteria. Antibacterial activity may be determined by reference to the MIC value, minimum inhibition concentration (MIC), which is defined as the minimum concentration of an antimicrobial agent that inhibits visible growth of micro-organisms in specified liquid media after overnight incubation. Alternatively antibacterial activity may be determined by the minimum bactericidal concentration (MBC) which is the minimum concentration that kills 99.9% of the bacteria during this incubation period. […]

Raw 264.7 cells [5] = experiment: MTT metabolic activity of Raw 264.7 cells (gentamicin cytotoxicity); assay type: cell-based, mouse; conditions: after incubation of 24 hours
Method: Raw 264.7 cells were seeded in a 96-well plate (polystyrene Nunclon™ clear TC plate, flat bottom, Greiner, The Netherlands) at a concentration of 1×10^5 cells/well and incubated overnight in RPMI at 37° C. in a humidified atmosphere containing 5% CO2 (unless specified otherwise). The cells were subsequently incubated overnight in 200 μl of RPMI containing gentamicin (15.6 to 1000 μg/ml), or incubated for 2 hours in RPMI containing photosensitizer TPPS2a (0.1 to 0.4 μg/ml) (PCI Biotech AS, Norway) which was replaced with refresh RPMI in order to remove unbound TPPS2a before incubation of another 2 hours. Raw 264.7 cells incubated in RPMI all the time were used as controls. The cells were protected from light using aluminium foil apart from illumination of 15 minutes using LumiSource (PCI Biotech AS, Norway). After illumination, cells were incubated in refresh RPMI for 24 hours. The effect of gentamicin and of TPPS2a on the metabolic activity of Raw 264.7 cells was tested using MTT at 24 hours after incubation or by WST-1 assay directly and at 24 hours after illumination, respectively, according to the manufacturer's instruction (Cell MTT or WST-1 assay kit, Sigma-Aldrich, The Netherlands). […] The influx of propidium iodide was measured to quantify the loss of cell viability directly or at 24 hours after illumination.

zebrafish embryos [6] = experiment: Toxicity test of gentamicin alone or combined with TPCS2a in zebrafish embryos; assay type: in vivo; conditions: for toxicity to zebrafish embryos (survival): graded doses injected per embryo; for maximal non-toxic concentrations: injection at 32 hpf, illumination 10 minutes, survival until 6 dpi
Method: (§1) Injection into the blood circulation of zebrafish embryos via either the blood island or the duct of Cuvier (Benard et al., 2012, Journal of visualized experiments: JoVE, 61) was performed following the injection procedure described earlier (Zhang et al., 2017, supra). The volume of liquid per injection was adjusted to 1 nl for all injections in the present study.
Toxicity test of gentamicin alone or combined with TPCS2a in zebrafish embryos Gentamicin or TPCS2a solution (both in PBS) or mixtures were injected into WT zebrafish embryos at 32 hours post fertilization (hpf). PBS was injected into control embryos. The embryos were protected from light using aluminium foil apart from illumination for 10 minutes using LumiSource, at 34 hpf. Survival of embryos (heartbeat, movement) was monitored daily until 6 dpi.

S aureus ATCC 49230 = experiment: Treatment of S. aureus-infected zebrafish embryos with gentamicin alone or combined with TPCS2a; assay type: in vivo; conditions: 0.4, 0.1 or 0.05 ng gentamicin, without or with 2.5*10^−3 ng TPCS2a; illumination 10 minutes
Method: as §1
Wild type zebrafish embryos were intravenously injected with a suitable dose of S aureus ATCC 49230 via the blood island at 30 hpf, and randomly divided into groups for different treatments. At 32 hpf 1 nl of PBS solution containing gentamicin alone (0.05, 0.1 or 0.4 μg/ml) or combined with 0.25 μg/ml TPCS2a (to provide 2.5×10^−3 ng) was intravenously injected. Control embryos received PBS injections. The embryos were protected from light using aluminium foil apart from illumination of 10 minutes, at 34 hpf, and separately maintained in E3 medium, which was refreshed daily. Survival was monitored until 6 dpi.

Compound: O=S(=O)(O)c1ccc(-c2c3nc(c(-c4ccccc4)c4ccc([nH]4)c(-c4ccccc4)c4nc(c(-c5ccc(S(=O)(=O)O)cc5)c5ccc2[nH]5)C=C4)C=C3)cc1 [TPPS2a, tetraphenyl porphyrin disulphonate]
- reduction of cell viability (influx of propidium iodide) (Raw 264.7 cells [1]): not statistically different from the control group
- intracellular survival of S. epidermidis vs non-treated illuminated group ([2]; TPPS2a only 0.25 μg/ml, with illumination): did not affect intracellular survival of S. epidermidis

Compound: CN[C@H](CC(C)C)C(=O)N[C@H]1C(=O)N[C@@H](CC(N)=O)C(=O)N[C@H]2C(=O)N[C@H]3C(=O)N[C@H](C(=O)N[C@H](C(=O)O)c4cc(O)cc(O)c4-c4cc3ccc4O)[C@H](O)c3ccc(c(Cl)c3)Oc3cc2cc(c3O[C@@H]2O[C@H](CO)[C@@H](O)[C@H](O)[C@H]2O[C@H]2C[C@](C)(N)[C@H](O)[C@H](C)O2)Oc2ccc(cc2Cl)[C@H]1O [vancomycin]
- toxicity to zebrafish embryos (zebrafish embryos [3]): dose-dependent toxicity
- survival of S. aureus-infected embryos (Staphylococcus aureus): had no effect on the survival of the infected embryos

Compound: gentamicin
- minimal bactericidal concentration [4]: 0.33 µg/mL
- minimal inhibitory concentration [4]: 0.04 µg/mL
- extracellular concentrations that did not reduce the metabolic activity of Raw 264.7 cells (Raw 264.7 cells [5]): up to 250 μg/ml
- killing of intracellular S. epidermidis ([2]; gentamicin only 1, 10 or 30 μg/ml, regardless of time of illumination): did not kill intracellular S. epidermidis
- effect of PCI on the efficacy of gentamicin ([2]; lowest dose of gentamicin, with PCI, in vitro): no effect of PCI
- toxicity to zebrafish embryos (survival) (zebrafish embryos [6]): dose-dependent toxicity
- maximal non-toxic concentrations (zebrafish embryos [6]): 2 ng/embryo
- survival of S. aureus-infected embryos compared to PBS mock treatment (S aureus ATCC 49230): significantly improved the survival

Compound: tetraphenyl chlorin disulphonate [TPCS2a]
- toxicity to zebrafish embryos (survival) (zebrafish embryos [6]): dose-dependent toxicity
- maximal non-toxic concentrations (zebrafish embryos [6]): 2.5*10^−3 ng/embryo
